Here are results for three compounds from publication PMC6585941 (SLAS discovery : advancing life sciences R & D, 2018).

The target in one series is T1, Recombinant human IDE (Homo sapiens, UniProt P14735).
T1 sequence (P14735 1-1019): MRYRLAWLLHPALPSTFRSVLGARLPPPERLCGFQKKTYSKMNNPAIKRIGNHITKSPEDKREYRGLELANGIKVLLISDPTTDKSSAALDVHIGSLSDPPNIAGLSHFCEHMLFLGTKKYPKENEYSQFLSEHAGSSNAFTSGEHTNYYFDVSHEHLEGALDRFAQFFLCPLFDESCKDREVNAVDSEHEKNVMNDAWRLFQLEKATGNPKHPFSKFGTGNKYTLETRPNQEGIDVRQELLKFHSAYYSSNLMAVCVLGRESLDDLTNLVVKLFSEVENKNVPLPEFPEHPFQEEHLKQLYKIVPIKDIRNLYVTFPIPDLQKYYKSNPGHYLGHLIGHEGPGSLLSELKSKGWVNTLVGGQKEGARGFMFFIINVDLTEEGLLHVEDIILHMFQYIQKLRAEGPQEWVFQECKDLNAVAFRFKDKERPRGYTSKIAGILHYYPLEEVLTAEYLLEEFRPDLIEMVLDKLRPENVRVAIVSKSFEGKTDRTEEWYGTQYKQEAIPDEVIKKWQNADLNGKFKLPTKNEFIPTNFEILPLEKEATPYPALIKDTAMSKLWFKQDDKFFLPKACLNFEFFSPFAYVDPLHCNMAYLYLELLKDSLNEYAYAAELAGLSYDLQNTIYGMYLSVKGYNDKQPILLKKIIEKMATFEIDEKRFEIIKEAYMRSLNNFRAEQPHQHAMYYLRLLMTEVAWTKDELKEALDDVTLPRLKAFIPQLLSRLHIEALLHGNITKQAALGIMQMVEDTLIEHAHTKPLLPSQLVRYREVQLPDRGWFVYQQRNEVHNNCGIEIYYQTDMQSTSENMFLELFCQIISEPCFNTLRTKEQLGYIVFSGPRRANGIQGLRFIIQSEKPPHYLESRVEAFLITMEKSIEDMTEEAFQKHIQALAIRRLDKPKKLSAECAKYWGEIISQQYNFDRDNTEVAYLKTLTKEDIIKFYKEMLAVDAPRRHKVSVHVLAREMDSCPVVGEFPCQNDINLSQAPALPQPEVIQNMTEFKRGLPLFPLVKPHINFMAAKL
Kind of series: Fluorescence polarization. The series is classed as biochemical. In general terms: In fluorescence polarisation assays a small probe gives low polarisation when free and higher when bound to something large.

Series [1] has as its system semi-purified protease purified from rat liver, inferred to be IDE. The note with it: protease purified by affinity chromatography from rat liver; cited from earlier work.
A further series has as its system purified recombinant IDE. The conditions noted are these: same form of purified recombinant IDE; cited from earlier work.
Where [2] appears, read: ML345 50 nM, FP-based assay, mean ± SD of 3 independent runs.

Consider `O=c1c2cc(F)ccc2sn1-c1cc(S(=O)(=O)N2CCOCC2)ccc1N1CCOCC1` [ML345], for which, at Recombinant human IDE (setting [2]), the “KM^app of FBG degradation in presence of inhibitor” value was found to be 0.392 ± 0.073 µM and the “vmax^app of FBG degradation in presence of inhibitor” value came out at 0.827 ± 0.032 nM/s. Besides, the “mechanism of inhibition of IDE” value at Recombinant human IDE (kinetics analyses, Lineweaver-Burk plots, P12–3A 5 µM or ML345 50 nM) was “irreversible”.
bacitracin: the “inhibition of the purified protease” value in series [1] is “susceptible to inhibition”.
As to insulin, the “kcat of degradation by IDE” value in the series on purified recombinant IDE is 0.025 s⁻¹.
